# According to ChEMBL document CHEMBL4507281, “Data for DCP probe BI-4394” (2021):
# Legend:
# [1] = system: Tyrosine-protein kinase ABL1 (Homo sapiens), P00519 [Q252H]; details: Compound concentration 100.0 nM
# [2] = biological target: Ankyrin repeat and protein kinase domain-containing protein 1 (Homo sapiens) (UniProt Q8NFD2); details: Compound concentration 100.0 nM
# [3] = biological target: Calcium/calmodulin-dependent protein kinase type 1B (Homo sapiens) (UniProt Q6P2M8); details: Compound concentration 100.0 nM
# [4] = biological target: Calcium/calmodulin-dependent protein kinase type II subunit alpha (Homo sapiens) (UniProt Q9UQM7); details: Compound concentration 100.0 nM
# Chain of Calcium/calmodulin-dependent protein kinase type II subunit alpha (Homo sapiens) (Q9UQM7 whole entry): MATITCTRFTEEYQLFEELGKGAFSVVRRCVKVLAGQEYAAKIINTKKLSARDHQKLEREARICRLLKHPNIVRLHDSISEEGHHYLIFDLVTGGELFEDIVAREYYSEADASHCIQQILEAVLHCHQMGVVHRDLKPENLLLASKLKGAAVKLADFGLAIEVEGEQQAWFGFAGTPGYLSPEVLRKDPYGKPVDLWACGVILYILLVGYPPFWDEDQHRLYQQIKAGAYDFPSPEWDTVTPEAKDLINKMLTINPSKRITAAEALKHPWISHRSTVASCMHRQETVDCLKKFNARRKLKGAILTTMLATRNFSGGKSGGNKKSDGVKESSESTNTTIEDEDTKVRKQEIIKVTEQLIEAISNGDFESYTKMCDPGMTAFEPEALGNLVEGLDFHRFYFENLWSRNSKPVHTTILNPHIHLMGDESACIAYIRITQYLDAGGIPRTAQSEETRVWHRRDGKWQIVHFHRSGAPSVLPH
# [5] = biological target: Cyclin-dependent kinase 11B (Homo sapiens) (UniProt P21127); details: Compound concentration 100.0 nM
# [6] = biological target: Casein kinase II subunit alpha' (Homo sapiens) (UniProt P19784); details: Compound concentration 100.0 nM
# Chain of Casein kinase II subunit alpha' (Homo sapiens) (P19784 whole entry, looked up): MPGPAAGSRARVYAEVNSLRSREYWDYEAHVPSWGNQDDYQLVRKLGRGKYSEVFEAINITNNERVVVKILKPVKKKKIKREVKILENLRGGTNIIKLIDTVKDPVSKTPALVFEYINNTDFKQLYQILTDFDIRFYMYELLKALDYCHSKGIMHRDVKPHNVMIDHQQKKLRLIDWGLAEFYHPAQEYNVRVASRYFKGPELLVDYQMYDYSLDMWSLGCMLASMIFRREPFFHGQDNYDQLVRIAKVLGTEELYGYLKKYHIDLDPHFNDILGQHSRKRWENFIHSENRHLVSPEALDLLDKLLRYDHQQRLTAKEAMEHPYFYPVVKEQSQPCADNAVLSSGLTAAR
# [7] = biological target: Receptor-type tyrosine-protein kinase FLT3 (Homo sapiens) (UniProt P36888); details: Compound concentration 100.0 nM
# Chain of Receptor-type tyrosine-protein kinase FLT3 (Homo sapiens) (P36888 whole entry): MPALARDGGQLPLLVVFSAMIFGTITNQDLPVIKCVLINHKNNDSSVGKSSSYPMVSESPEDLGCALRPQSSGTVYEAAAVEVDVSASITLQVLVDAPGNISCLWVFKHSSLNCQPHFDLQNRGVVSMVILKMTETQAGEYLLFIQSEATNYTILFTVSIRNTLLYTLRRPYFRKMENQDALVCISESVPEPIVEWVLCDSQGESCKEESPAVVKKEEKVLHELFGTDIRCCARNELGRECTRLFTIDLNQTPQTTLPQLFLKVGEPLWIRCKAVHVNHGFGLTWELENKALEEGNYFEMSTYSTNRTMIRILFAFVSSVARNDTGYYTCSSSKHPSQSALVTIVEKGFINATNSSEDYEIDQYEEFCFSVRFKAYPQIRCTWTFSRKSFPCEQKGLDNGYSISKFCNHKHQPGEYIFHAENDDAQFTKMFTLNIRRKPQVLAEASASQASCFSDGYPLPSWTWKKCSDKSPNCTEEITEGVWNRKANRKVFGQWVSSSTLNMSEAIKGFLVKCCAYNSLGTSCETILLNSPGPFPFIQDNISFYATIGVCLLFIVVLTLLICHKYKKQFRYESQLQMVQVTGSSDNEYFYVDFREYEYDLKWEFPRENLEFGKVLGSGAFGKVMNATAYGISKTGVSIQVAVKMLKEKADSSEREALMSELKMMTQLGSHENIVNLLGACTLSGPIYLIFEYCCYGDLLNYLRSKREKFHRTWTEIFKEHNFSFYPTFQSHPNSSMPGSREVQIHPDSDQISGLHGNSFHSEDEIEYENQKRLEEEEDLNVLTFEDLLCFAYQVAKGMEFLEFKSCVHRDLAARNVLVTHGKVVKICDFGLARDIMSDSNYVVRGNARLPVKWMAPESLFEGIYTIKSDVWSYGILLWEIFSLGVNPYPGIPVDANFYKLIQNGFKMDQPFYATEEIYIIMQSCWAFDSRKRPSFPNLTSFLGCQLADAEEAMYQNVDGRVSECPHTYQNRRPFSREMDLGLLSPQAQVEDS
# [8] = biological target: G protein-coupled receptor kinase 3 (Homo sapiens) (UniProt P35626); details: Compound concentration 100.0 nM
# [9] = biological target: Insulin-like growth factor 1 receptor (Homo sapiens) (UniProt P08069); details: Compound concentration 100.0 nM
# [10] = biological target: T1, Tyrosine-protein kinase JAK3 (Homo sapiens) (UniProt P52333); details: Compound concentration 100.0 nM
# T1 sequence (whole entry): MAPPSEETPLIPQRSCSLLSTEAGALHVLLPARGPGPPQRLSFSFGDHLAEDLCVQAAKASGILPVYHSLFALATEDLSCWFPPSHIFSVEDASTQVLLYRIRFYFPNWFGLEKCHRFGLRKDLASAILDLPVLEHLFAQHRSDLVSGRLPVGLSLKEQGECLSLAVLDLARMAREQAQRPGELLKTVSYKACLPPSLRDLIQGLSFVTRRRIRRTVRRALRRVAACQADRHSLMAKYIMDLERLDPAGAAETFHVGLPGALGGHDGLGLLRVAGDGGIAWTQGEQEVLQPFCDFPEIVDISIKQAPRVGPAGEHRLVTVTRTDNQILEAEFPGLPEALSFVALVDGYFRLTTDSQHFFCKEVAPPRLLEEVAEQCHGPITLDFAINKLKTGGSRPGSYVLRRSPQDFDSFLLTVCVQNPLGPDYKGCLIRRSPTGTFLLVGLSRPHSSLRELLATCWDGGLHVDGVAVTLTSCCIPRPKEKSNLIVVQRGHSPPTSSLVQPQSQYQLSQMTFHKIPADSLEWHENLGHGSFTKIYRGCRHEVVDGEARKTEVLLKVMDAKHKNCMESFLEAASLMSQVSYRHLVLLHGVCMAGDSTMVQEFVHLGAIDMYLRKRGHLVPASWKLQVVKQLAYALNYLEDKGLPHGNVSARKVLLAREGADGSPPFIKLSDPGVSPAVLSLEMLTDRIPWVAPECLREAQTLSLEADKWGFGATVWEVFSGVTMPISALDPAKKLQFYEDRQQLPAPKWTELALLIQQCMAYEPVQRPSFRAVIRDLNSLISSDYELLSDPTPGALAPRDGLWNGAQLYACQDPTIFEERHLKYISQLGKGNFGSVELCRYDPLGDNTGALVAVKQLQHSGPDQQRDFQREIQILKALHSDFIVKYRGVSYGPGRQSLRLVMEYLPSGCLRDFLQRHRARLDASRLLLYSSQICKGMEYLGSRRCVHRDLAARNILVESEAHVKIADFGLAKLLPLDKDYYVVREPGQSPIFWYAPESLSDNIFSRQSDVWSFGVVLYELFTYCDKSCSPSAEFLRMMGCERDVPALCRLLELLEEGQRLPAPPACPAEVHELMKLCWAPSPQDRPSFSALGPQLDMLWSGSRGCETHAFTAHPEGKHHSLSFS
# [11] = biological target: LIM domain kinase 1 (Homo sapiens) (UniProt P53667); details: Compound concentration 100.0 nM
# Chain of LIM domain kinase 1 (Homo sapiens) (P53667 whole entry, looked up, the tested form may be a part): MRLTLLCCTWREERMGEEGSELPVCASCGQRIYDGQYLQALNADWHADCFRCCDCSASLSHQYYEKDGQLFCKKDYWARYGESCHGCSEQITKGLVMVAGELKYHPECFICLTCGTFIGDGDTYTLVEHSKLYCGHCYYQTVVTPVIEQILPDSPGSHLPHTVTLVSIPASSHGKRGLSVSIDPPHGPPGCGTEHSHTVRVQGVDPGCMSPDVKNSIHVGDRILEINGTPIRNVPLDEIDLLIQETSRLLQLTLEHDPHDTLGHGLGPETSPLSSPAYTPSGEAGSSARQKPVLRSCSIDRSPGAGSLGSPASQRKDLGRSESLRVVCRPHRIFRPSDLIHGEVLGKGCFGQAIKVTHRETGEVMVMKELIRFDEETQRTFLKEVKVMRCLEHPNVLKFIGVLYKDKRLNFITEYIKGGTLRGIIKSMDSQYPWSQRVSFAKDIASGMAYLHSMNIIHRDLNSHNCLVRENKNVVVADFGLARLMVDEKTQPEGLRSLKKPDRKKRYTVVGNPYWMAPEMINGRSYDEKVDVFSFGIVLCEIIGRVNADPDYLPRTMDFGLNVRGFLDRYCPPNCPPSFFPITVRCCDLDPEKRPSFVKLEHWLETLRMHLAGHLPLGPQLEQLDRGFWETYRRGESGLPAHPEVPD
# [12] = biological target: Mitogen-activated protein kinase kinase kinase 13 (Homo sapiens) (UniProt O43283); details: Compound concentration 100.0 nM
# [13] = biological target: Serine/threonine-protein kinase MAK (Homo sapiens) (UniProt P20794); details: Compound concentration 100.0 nM
# Chain of Serine/threonine-protein kinase MAK (Homo sapiens) (P20794 whole entry): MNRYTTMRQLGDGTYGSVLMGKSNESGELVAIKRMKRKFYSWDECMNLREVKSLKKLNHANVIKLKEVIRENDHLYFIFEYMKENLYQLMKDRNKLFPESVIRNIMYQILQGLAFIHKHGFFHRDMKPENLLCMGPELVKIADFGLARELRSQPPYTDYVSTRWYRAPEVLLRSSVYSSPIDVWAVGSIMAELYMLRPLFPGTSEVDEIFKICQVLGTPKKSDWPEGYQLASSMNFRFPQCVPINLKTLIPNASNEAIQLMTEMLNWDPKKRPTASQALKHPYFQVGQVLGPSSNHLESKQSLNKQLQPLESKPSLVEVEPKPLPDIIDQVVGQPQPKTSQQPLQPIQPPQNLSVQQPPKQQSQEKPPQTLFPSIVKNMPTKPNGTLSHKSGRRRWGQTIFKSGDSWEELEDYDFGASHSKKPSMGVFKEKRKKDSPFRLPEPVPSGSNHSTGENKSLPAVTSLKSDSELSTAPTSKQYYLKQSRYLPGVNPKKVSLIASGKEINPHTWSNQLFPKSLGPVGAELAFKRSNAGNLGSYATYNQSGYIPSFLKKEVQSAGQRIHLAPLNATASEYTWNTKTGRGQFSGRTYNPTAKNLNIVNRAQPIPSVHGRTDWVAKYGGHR
# [14] = biological target: MAP kinase-interacting serine/threonine-protein kinase 1 (Homo sapiens) (UniProt Q9BUB5); details: Compound concentration 100.0 nM
# [15] = biological target: Serine/threonine-protein kinase MRCK beta (Homo sapiens) (UniProt Q9Y5S2); details: Compound concentration 100.0 nM
# [16] = biological target: Serine/threonine-protein kinase Nek2 (Homo sapiens) (UniProt P51955); details: Compound concentration 100.0 nM
# Chain of Serine/threonine-protein kinase Nek2 (Homo sapiens) (P51955 whole entry): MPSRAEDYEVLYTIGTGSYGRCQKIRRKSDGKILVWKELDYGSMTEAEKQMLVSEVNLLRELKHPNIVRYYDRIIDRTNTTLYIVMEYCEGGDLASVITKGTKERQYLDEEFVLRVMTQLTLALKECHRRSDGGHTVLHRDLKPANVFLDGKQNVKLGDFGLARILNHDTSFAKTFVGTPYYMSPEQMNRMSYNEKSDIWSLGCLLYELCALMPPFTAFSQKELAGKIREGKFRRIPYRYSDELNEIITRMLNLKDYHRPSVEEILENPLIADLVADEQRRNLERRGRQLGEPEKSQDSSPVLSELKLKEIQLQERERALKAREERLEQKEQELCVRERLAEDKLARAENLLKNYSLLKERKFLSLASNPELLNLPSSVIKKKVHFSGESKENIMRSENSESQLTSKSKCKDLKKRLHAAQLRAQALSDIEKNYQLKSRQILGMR
# [17] = biological target: Serine/threonine-protein kinase Nek5 (Homo sapiens) (UniProt Q6P3R8); details: Compound concentration 100.0 nM
# [18] = biological target: Serine/threonine-protein kinase Nek6 (Homo sapiens) (UniProt Q9HC98); details: Compound concentration 100.0 nM
# Chain of Serine/threonine-protein kinase Nek6 (Homo sapiens) (Q9HC98 whole entry): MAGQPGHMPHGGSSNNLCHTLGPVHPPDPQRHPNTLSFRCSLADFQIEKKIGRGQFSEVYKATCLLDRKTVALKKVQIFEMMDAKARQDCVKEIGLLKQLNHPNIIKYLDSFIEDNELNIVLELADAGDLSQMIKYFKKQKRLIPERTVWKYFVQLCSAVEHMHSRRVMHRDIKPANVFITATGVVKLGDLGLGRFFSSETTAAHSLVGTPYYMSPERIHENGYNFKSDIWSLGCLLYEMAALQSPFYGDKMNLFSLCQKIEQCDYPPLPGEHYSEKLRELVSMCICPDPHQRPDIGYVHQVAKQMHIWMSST
# [19] = biological target: Mitogen-activated protein kinase 13 (Homo sapiens) (UniProt O15264); details: Compound concentration 100.0 nM
# Chain of Mitogen-activated protein kinase 13 (Homo sapiens) (O15264 whole entry): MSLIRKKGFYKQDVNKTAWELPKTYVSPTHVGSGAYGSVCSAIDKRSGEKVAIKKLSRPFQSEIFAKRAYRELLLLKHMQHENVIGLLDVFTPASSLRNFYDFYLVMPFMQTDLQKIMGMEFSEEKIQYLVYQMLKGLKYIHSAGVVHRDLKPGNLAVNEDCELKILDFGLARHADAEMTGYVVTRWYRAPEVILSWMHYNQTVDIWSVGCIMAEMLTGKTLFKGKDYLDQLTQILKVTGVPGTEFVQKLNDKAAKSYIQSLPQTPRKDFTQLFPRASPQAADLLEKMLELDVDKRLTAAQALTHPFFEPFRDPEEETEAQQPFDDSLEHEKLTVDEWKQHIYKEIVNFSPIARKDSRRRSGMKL
# [20] = biological target: Serine/threonine-protein kinase PAK 6 (Homo sapiens) (UniProt Q9NQU5); details: Compound concentration 100.0 nM
# [21] = biological target: Phosphatidylinositol 4,5-bisphosphate 3-kinase catalytic subunit gamma isoform (Homo sapiens) (UniProt P48736); details: Compound concentration 100.0 nM
# [22] = biological target: Membrane-associated tyrosine- and threonine-specific cdc2-inhibitory kinase (Homo sapiens) (UniProt Q99640); details: Compound concentration 100.0 nM
# [23] = biological target: Serine/threonine-protein kinase D3 (Homo sapiens) (UniProt O94806); details: Compound concentration 100.0 nM
# [24] = biological target: Interferon-induced, double-stranded RNA-activated protein kinase (Homo sapiens) (UniProt P19525); details: Compound concentration 100.0 nM
# [25] = biological target: Ribosomal protein S6 kinase alpha-5 (Homo sapiens) (UniProt O75582); details: Compound concentration 100.0 nM
# [26] = biological target: Ribosomal protein S6 kinase alpha-1 (Homo sapiens) (UniProt Q15418); details: Compound concentration 100.0 nM
# [27] = biological target: Serine/threonine-protein kinase SBK1 (Homo sapiens) (UniProt Q52WX2); details: Compound concentration 100.0 nM
# [28] = biological target: GABA-A receptor; anion channel (Rattus norvegicus) (UniProt O09028+P15431+P18506+P18508+P19969+P20236+P23574+P23576+P28471+P28473+P30191+P62813+P63079+P63138+Q91ZM7+Q9ES14); details: Compound concentration 10.0 uM
# Chain of Ankyrin repeat and protein kinase domain-containing protein 1 (Homo sapiens) (Q8NFD2 whole entry, the tested form may be a part): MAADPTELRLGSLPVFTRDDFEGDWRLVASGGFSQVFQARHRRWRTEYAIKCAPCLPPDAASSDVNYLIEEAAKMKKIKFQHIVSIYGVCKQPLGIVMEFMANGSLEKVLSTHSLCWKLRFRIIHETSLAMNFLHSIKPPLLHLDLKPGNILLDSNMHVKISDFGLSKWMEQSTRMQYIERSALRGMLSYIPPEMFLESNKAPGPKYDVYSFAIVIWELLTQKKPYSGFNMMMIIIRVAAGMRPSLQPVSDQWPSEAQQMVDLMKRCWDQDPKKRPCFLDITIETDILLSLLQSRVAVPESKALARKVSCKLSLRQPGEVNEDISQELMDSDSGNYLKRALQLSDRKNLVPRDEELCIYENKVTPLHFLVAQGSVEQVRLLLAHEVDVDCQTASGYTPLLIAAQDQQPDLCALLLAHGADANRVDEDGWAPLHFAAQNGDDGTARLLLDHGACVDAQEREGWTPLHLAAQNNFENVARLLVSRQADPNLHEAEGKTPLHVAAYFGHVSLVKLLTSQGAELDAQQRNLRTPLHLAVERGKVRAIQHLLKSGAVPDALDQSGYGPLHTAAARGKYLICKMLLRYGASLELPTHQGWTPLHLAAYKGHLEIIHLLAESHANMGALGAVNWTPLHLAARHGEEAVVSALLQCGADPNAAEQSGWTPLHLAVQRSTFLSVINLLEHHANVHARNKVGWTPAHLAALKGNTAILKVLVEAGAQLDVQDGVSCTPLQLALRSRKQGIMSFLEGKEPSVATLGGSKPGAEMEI
SMILES,residual activity [1] [%],residual activity [2] [%],residual activity [3] [%],residual activity [4] [%],residual activity [5] [%],residual activity [6] [%],residual activity [7] [%],residual activity [8] [%],residual activity [9] [%],residual activity [10] [%],residual activity [11] [%],residual activity [12] [%],residual activity [13] [%],residual activity [14] [%],residual activity [15] [%],residual activity [16] [%],residual activity [17] [%],residual activity [18] [%],residual activity [19] [%],residual activity [20] [%],other results
CCOC(=O)c1cc2cc(-c3cc(C(=O)NCc4ccc(C(=O)O)cc4)nn3C)ccc2[nH]1 [BI 4394],92,100,97,76,98,87,90,96,82,82,100,74,100,75,88,99,100,95,100,99,residual activity [21]: 90%; residual activity [22]: 100%; residual activity [23]: 100%; residual activity [24]: 100%; residual activity [25]: 100%; residual activity [26]: 97%; residual activity [27]: 90%; inhibition [28]: 1.07%
Cn1nc(C(=O)NCc2ccc(C(=O)O)cc2)cc1-c1ccc2[nH]ccc2c1 [BI 4395],71,100,100,79,93,100,86,81,91,65,100,78,92,100,100,95,48,91,91,96,residual activity [21]: 64%; residual activity [22]: 93%; residual activity [23]: 89%; residual activity [24]: 84%; residual activity [25]: 100%; residual activity [26]: 100%; residual activity [27]: 77%; inhibition [28]: 29.1%
